Experimental data published in patent US20040006236A1, “Diaminopropionic acid derivatives” (priority 1999, published 2004).

System: Mac-1 and LFA-1-mediated neutrophil binding to immobilized ICAM-1
Assay: Neutrophil (Mac-1 and LFA-1)/ICAM-1 cell-based screening assay
Conditions: human neutrophils
Experimental: Both Mac-1 and LFA-1 are expressed on the cell surface of neutrophils. The ability of antagonists to inhibit Mac-1 and LFA-1-mediated neutrophil binding to immobilized ICAM-1 was quantitated by a cell based assay. Typically, fusion protein consisting of the entire extracellular domain of human ICAM-1 and the Fc domain of human IgG (5dICAM-Ig) was coated onto 96 well microtiter plates (1 μg in 100 μL TBS) overnight at 4° C. The plates were then blocked with 150 μL of 10% PVP in TBS for 1 h at 37° C. Plates were washed 3 times (150 μL each) with TBS. Human neutrophils were purified from whole blood from healthy volunteers using LSM (ICN). Cells (8×10^6/mL) were fluorescently labeled with 6-carboxyfluorescein (100 μg/mL) for 40 min in IMDM/1 mM MgCl2/1.2 mM CaCl2 as described in Example 287. Cells (8×10^6/mL) were stimulated with f-Met-Leu-Phe (10 μM) for 5 min at room temperature just prior to being used in the assay, and diluted to 2×10^6 cells/mL with RPMI/0.05% BSA/0.2 mM MnCl2. Stock solutions (10 mM) of test compounds were diluted to 2.5 mM with DMSO. A series of 1:4 dilutions in DMSO were performed to achieve a concentration range of 38.2 nM-2.5 mM. Each sample was further diluted 50-fold with RPMI/0.05% BSA/0.2 mM MnCl2. Equal volumes of labeled cells were then added to assay tubes containing diluted compound. Final concentrations of compound tested in the assay ranged from 0.38 nM-25 μM with a cell concentration of 1×10^6 per mL. Cells were incubated for 10 min at 37° C. with gentle shaking, then dispensed (100 μL per well) onto ICAM-1 coated plates and incubated for 30 min at 37° C./5% CO2. Unbound cells were washed and plates were read on a Cytofluor™ 2300 (Millipore) as described in Example 384.

First: C[C@@H](NC(=O)c1cc(Cl)c(C(=O)N[C@@H](CNC(=O)c2cccs2)C(=O)O)c(Cl)c1)c1cccc2ccccc12 [Example 346, N-[2,6-dichloro-4-[[[(1R)-1-(1-naphthalenyl)ethyl]amino]carbonyl]benzoyl]-3-[(thiophene-2-carbonyl)amino]-L-alanine]
Second: C[C@@H](NC(=O)c1cc(Cl)c(C(=O)N[C@@H](CNC(=O)c2ccccc2)C(=O)O)c(Cl)c1)c1cccc2ccccc12 [Example 347]
The IC50 of the first is 1.7-fold lower: 9.7 nM for the first, 16.1 nM for the second.

First: O=C(NCc1cccc(O)c1)c1ccc(C(=O)N[C@@H](CNC(=O)c2cccc(O)c2)C(=O)O)c(Cl)c1 [Example 132]
Second: Nc1cccc(C(=O)NC[C@H](NC(=O)c2ccc(C(=O)NCc3cccc(O)c3)cc2Cl)C(=O)O)c1 [Example 118]
The IC50 of the first is 7.6-fold lower: 4.9 nM for the first, 37 nM for the second. The first is the more potent here.

First: CC1(C(=O)NC[C@H](NC(=O)c2ccc(C(=O)NCc3cccc(O)c3)cc2Cl)C(=O)O)CCCCC1 [Example 105]
Second: Cc1ccc(C(=O)NC[C@H](NC(=O)c2ccc(C(=O)NCc3cccc(O)c3)cc2Cl)C(=O)O)s1 [Example 160]
The IC50 of the first is 4.1-fold higher: 94 nM for the first, 23 nM for the second.

Cc1ccc(C(=O)NC[C@H](NC(=O)c2c(Cl)cc(C(=O)NCc3cccc(O)c3)cc2Cl)C(=O)O)s1 [Example 358] and O=C(NCc1cccc(O)c1)c1cc(Cl)c(C(=O)N[C@@H](CNC(=O)c2ccc(Br)s2)C(=O)O)c(Cl)c1 [Example 354] are within 1.5-fold of each other in IC50: 4.3 nM for the first, 4.7 nM for the second.

Going from COc1ccc(C(=O)NC[C@H](NC(=O)c2c(Cl)cc(C(=O)NCc3cccc(O)c3)cc2Cl)C(=O)O)cc1O [Example 351] to O=C(NCc1cccc(O)c1)c1cc(Cl)c(C(=O)N[C@@H](CNC(=O)c2cccc(O)c2)C(=O)O)c(Cl)c1 [Example 350], the IC50 falls from 2.7 nM to 0.7 nM (3.9-fold).

Going from O=C(NCc1cccc(O)c1)c1ccc(C(=O)N[C@@H](CNC(=O)c2ccsc2)C(=O)O)c(Cl)c1 [Example 161] to O=C(NCc1cccc(O)c1)c1ccc(C(=O)N[C@@H](CNC(=O)c2cccc(F)c2)C(=O)O)c(Cl)c1 [Example 131], the IC50 falls from 44 nM to 27 nM (1.6-fold).

Compared with O=C(NCc1cccc(O)c1)c1ccc(C(=O)N[C@@H](CNC(=O)c2ccc(Br)s2)C(=O)O)c(Cl)c1 [Example 155], Cc1cccc(C(=O)NC[C@H](NC(=O)c2ccc(C(=O)NCc3cccc(O)c3)cc2Cl)C(=O)O)c1 [Example 138] is 2.1-fold lower in IC50: 65 nM for the first, 31 nM for the second. The second is the more potent here.

Compared with O=C(NCc1cccc(O)c1)c1cc(Cl)c(C(=O)N[C@@H](CNC(=O)c2cccc(F)c2)C(=O)O)c(Cl)c1 [Example 349], O=C(NCc1cccc(O)c1)c1cc(Cl)c(C(=O)N[C@@H](CNC(=O)c2sccc2Br)C(=O)O)c(Cl)c1 [Example 353] is 4-fold higher in IC50: 4.7 nM for the first, 18.6 nM for the second. The first is the more potent here.

Going from COc1cccc(C(=O)NC[C@H](NC(=O)c2ccc(C(=O)NCc3cccc(O)c3)cc2Cl)C(=O)O)c1 [Example 76, N-[2-chloro-4-[[[(3-hydroxyphenyl)methyl]amino]-carbonyl]benzoyl]-3-(3-methoxybenzoylamino)-L-alanine] to O=C(NCc1cccc(O)c1)c1ccc(C(=O)N[C@@H](CNC(=O)c2cccc(Cl)c2)C(=O)O)c(Cl)c1 [Example 123], the IC50 falls from 63 nM to 21 nM (3-fold). The second is the more potent here.

For NS(=O)(=O)c1ccc(C(=O)NC[C@H](NC(=O)c2ccc(C(=O)NCc3cccc(O)c3)cc2Cl)C(=O)O)cc1 [Example 119], the IC50 was 220 nM.
